Source: publication PMC10714399, “Open Source Antibiotics: Simple Diarylimidazoles Are Potent against Methicillin-Resistant Staphylococcus aureus” (ACS Infectious Diseases, 2023)
Values after ≈ are worked out from the molar mass of the structure shown. Where two headings read alike, the source gives them in different places. Each block holds one compound with its values, some of them ahead of it.

What was measured:
[1] = Human liver microsome intrinsic clearance; assay type: in vitro ADME; conditions: human liver microsomes, NEU
Aqueous solubility = assay type: physicochemical; conditions: NEU
[2] = test system: Enterococcus faecalis ATCC 51299 (vanA-positive; vancomycin-resistant); assay: In vitro antibacterial activity, MIC (UCL), VRE; assay type: cell-based
Outline: (§1)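 Broth microdilution MIC in isosensitest broth; inoculum from overnight tryptone soya agar culture suspended in PBS to A600 0.1 (~1 × 10^8 CFU/mL), then diluted 1:100. Compounds tested as 2-fold series from 32 to 0.03 μg/mL, DMSO at most 2%; vancomycin as quality control.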

[3] = Rat hepatocyte intrinsic clearance; assay type: in vitro ADME; conditions: rat hepatocytes, NEU
[4] = HEK293 toxicity, 96-well dose-response (UCL; MTT or resazurin, with or without recovery); assay type: cell-based, human; conditions: human, HEK293 cells; for CC50 at 24 h: read-out: HEK293 CC50; for Dmax spread between recovery and non-recovery conditions at 24 h, 32 μg/mL: read-out: spread of Dmax values comparing recovery and non-recovery conditions
Protocol: The importance of balancing potency vs MRSA and cytotoxicity led us to examine a subset of compounds more thoroughly for toxicity against human embryonic kidney cell line HEK293. […] Dmax is a parameter that quantifies toxicity at the highest tested concentration (32 μg/mL for all compounds), calculated as reciprocal percentage of viable cells (100 – viability%), where cells either were allowed to recover or viability was measured immediately after treatment. […] Our efforts focused on trying to replicate the original toxicity experiments (by CO-ADD) with tamoxifen using a protocol modified for use with 96-well plates. Given the variability of protocols and results in the literature,[28] it was important to compare with a standard protocol we have reliably used in our own laboratories.[29]−[33] […] Truly “non-toxic” compounds might be expected to show Dmax < 50% for all experiment variations, e.g., 861. […] A large spread of Dmax values comparing recovery and non-recovery conditions larger than 20% is perhaps indicative of a mechanism of toxicity that persists beyond exposure, i.e., cytotoxic compounds that continue to induce toxicity as cells recover and restart dividing, for example, compounds 865, 870, 871, 980, and 981. […] This variability could be driven by interference of the compounds with the fluorescence readout or resorufin build-up as previously described.[27]
HEK293 cells (ATCC, UK) at passage 32 were a kind gift from Dr. Ben Allsop from the Translational Research Office at University College London. Cells were tested for mycoplasma using a MycoAlert Detection Kit (Lonza, Switzerland) as per manufacturer instructions, frozen stocks were stored in liquid nitrogen, and cells were re-tested whenever a new aliquot was thawed.
Cells were maintained in DMEM (Sigma-Aldrich, UK) supplemented with 10% heat-inactivated FBS (Sigma-Aldrich, UK), 1% GlutaMax (ThermoFisher, UK), and 1% sodium pyruvate (Lonza, UK) without antibiotics in an incubator at 37 °C and 5% CO2. Media was changed every 2 days, and cells were passaged every 3–4 days at a subcultivation ratio of 1:10, by detaching the cells with phenol-free TrypLE Express (ThermoFisher, UK), after washing with HBSS Ca^2+/Mg^2+ (ThermoFisher, UK). Up to 55 passages were used throughout the experiments.
(a) Cell seeding: At subculture, a dilute solution of cells was counted using Trypan Blue (Sigma-Aldrich, UK) and a hemocytometer. Cells were further diluted to 7000 or 50 000 cells/mL for experiments.
For recovery experiments, 700 cells (100 μL) were seeded in 96-well plates and incubated for 48 h while cells reached exponential phase.
For non-recovery experiments, 5000 cells (100 μL) were seeded in 96-well plates and incubated for 48 h while cells reached confluence. This is the same number of cells as per the CO-ADD protocol where 384-well plates were used, but we extended the growth time to 48 h to produce a similar confluency.
Stock solutions were diluted 100 times (to 1% DMSO) to 32 μg/mL in full medium (vortexed briefly) and then serially diluted using a digital pipet (Explorer, Eppendorf, Germany) at a dilution factor of 2 to a final concentration of […].
(c) Dosing experiments: At the specified time after seeding, media was removed from cells, cells were washed with HBSS Ca^2+/Mg^2+ (100 μL), and 100 μL of diluted compounds were added as per Supporting Information - Biology, Figure S4, and incubated for 24 h.
After treatment, solutions were removed, and cells were washed with HBSS Ca^2+/Mg^2+. For non-recovery experiments, viability was determined immediately as described below.
For recovery experiments, fresh media was added to plates (100 μL) and cells were returned to the incubator for another 72 h, after which viability was recorded as described below.
i. MTT assay: 3-[4,5-Dimethylthiazol-2-yl]-2,5-diphenyltetrazolium bromide (MTT) (Sigma-Aldrich, UK) was dissolved in sterile PBS at 5 mg/mL with sonication (20 min), protected from light. […]

[5] = Human plasma protein binding (PPB); assay type: in vitro ADME; conditions: human, plasma, human plasma, NEU; read-out: Human PPB (NEU) (converted)
[6] = test system: Staphylococcus aureus NCTC 13373 (mecA-positive; methicillin-resistant); assay: In vitro antibacterial activity, MIC (UCL School of Pharmacy assay), MRSA; assay type: cell-based; conditions: Staphylococcus aureus
Outline: as §1

[7] = test system: S. aureus ATCC 25923 (methicillin-susceptible); assay: In vitro antibacterial activity, MIC (UCL), MSSA; assay type: cell-based, Staphylococcus aureus; conditions: Staphylococcus aureus
Outline: as §1

[8] = test system: MRC-5SV2 (human lung fibroblast cell line); assay: Toxicity against MRC-5SV2; assay type: cell-based
Protocol: (§2) ADME and toxicity for compounds were measured according to procedures outlined in the manuscript submitted in parallel to this one;2 other procedures were used for those compounds analysed by Monash University (in vitro ADME) or UCL (toxicity), both described in the main

[9] = test system: PMM (primary mouse macrophages); assay: Toxicity against PMM; assay type: cell-based
Protocol: as §2

[10] = test system: Staphylococcus aureus ATCC 43300 MRSA; assay: CO-ADD antibacterial assay (growth inhibition, MIC), MRSA; assay type: cell-based; conditions: read-out: MRSA MIC (CO-ADD)
Protocol: Hit Confirmation of active compounds by whole cell growth inhibition assays was conducted as an 8-point dose response to determine the Minimum Inhibitory Concentration (MIC), in duplicate (n=2). The inhibition of growth is measured against those microorganisms that […]
Included in the Hit Confirmation were 5 bacteria: Escherichia coli, Klebsiella pneumoniae, Acinetobacter baumannii, Pseudomonas aeruginosa and Staphylococcus aureus, and 2 fungi Candida albicans and Cryptococcus neoformans. […]
Assay Parameters Bacteria Fungi HEK293 Haemolysis […]
Duplicate (n=2) Duplicate (n=2) Duplicate (n=2) Duplicate (n=2)
QC Control MIC: Control MIC: Control CC50: Control HC10:
Non-Binding Non-Binding TC, 384-well Polypropylene
Plates Surface (NBS), Surface (NBS), black wall/clear 384-well and 384-well plate 384-well plate bottom polystyrene 384-
Cation-adjusted Yeast Nitrogen DMEM
Media Mueller Hinton Base supplemented 0.9% NaCl
Hit Confirmation outcomes are detailed in individual Project reports, personalised for each Project Submission for each CO-ADD user.
Please see your data sheet with file extension P0XXX_HC_data.xlsx, for example CO-ADD Project P0100, P0100_HC_data.xlsx
Study: HC_data ID: HC-Procedures & Materials
Date: Last updated June 2018 Confidential Page 3 of 11
(1 picture or pasted object on this page, not shown here)
Samples were provided by the collaborator and stored frozen at -20 °C. Samples were prepared in DMSO and water to a final testing concentration of 32 µg/mL or 20 µM (unless otherwise indicated in the data sheet) and serially diluted 1:2 fold for 8 times. Each sample concentration was prepared in 384-well plates, non-binding surface plate (NBS; Corning 3640) for each bacterial/fungal strain, tissue-culture treated (TC-treated; Corning 3712/3764) black for mammalian cell types and polypropylene 384-well (PP; Corning 3657) for haemolysis assays, all in duplicate (n=2), and keeping the final DMSO concentration to a maximum of 0.5%. All the sample preparation was done using liquid handling robots. […]
detailed in the Data sheet for the individual Project.
All bacteria were cultured in Cation-adjusted Mueller Hinton broth (CAMHB) at 37 °C overnight. A sample of each culture was then diluted 40-fold in fresh broth and incubated at 37 °C for 1.5-3 h. The resultant mid-log phase cultures were diluted (CFU/mL measured by OD600), then added to each well of the compound containing plates, giving a cell density of 5×10^5 CFU/mL and a total volume of 50 µL. All the plates were covered and incubated at 37 °C for 18 h without shaking.
Inhibition of bacterial growth was determined measuring absorbance at 600 nm (OD600), using a Tecan M1000 Pro monochromator plate reader. The percentage of growth inhibition was calculated for each well, using the negative control (media only) and positive control (bacteria without inhibitors) on the same plate as references.
The percentage of growth inhibition was calculated for each well, using the negative control (media only) and positive control (bacteria without inhibitors) on the same plate. The MIC […]
by an inhibition ≥ 80%. In addition, the maximal percentage of growth inhibition is reported as DMax, indicating any compounds with partial activity.
Date: Last updated June 2018 Confidential Page 5 of 11
Material Code Brand/Supplier Cat No.
Compound preparation plate, Polypropylene PP Corning 3364
Assay Plates – Antimicrobial
Non-binding surface NBS 384w Corning 3640
Assay Plates – Cytotoxicity
Tissue culture treated Black/Clear bottom 384w Corning 3712
Assay Plates - Haemolysis PP-Haem Corning 3657 […]
Growth media - bacteria CAMHB Bacto Laboratories 212322
Culture agar - fungi YPD Becton Dickinson 242720
Growth media - fungi YNB Becton Dickinson 233520
Resazurin Sigma-Aldrich R7017
Dulbecco's Modified Eagle Medium DMEM Life Technologies 11995-073
Foetal Bovine Serum FBS Bovogen FFBS-500
0.9% NaCl Saline Baxter AHF7124
Sample Name Sample ID MW Conc. Solvent Source […]

SMILES: c1ccc(-c2c(-c3ccccn3)nc3n2CCC3)cc1 [OSA_000870]
HLM CLint (NEU) [1]: 64 uL/min/mg protein
solubility (Aqueous solubility; thermodynamic from solid, read-out: Aqueous Solubility (NEU)): 179 µM (≈ 46.8 µg/mL)
MIC ([2]; read-out: VRE MIC (UCL)): > 32 µg/mL
Rat Hep CLint (NEU) [3]: 25.9 uL/min/10x6 cells
CC50 at 24 h [4]: 3.6 µg/mL (≈ 13.8 µM)
fraction unbound [5]: 0.15
MIC ([6]; UCL, read-out: MRSA MIC (UCL)): 32 µg/mL (≈ 122 µM)

SMILES: c1ccc(-c2nc3ccccn3c2-c2ccc3sccc3c2)nc1 [compound 871]
MIC ([2]; read-out: VRE MIC): 8 µg/mL (≈ 24.4 µM)
Dmax spread between recovery and non-recovery conditions at 24 h, 32 μg/mL [4]: > 20%
MIC ([6]; read-out: MRSA MIC): 4 µg/mL (≈ 12.2 µM)

SMILES: CCN(c1ccc(F)cc1)c1c(-c2ccccn2)nc2ccccn12 [compound 981]
MIC ([7]; read-out: MSSA MIC): 2 µg/mL (≈ 6.02 µM)
MRC5 TC50 [8]: 1.6 µg/mL
MIC ([2]; read-out: VRE MIC): 8 µg/mL (≈ 24.1 µM)
Dmax spread between recovery and non-recovery conditions at 24 h, 32 μg/mL [4]: > 20%
PMM TC50 [9]: 2.7 µg/mL
MIC ([6]; read-out: MRSA MIC): 2 µg/mL (≈ 6.02 µM)

SMILES: COc1ccc2nc(-c3ccccn3)c(N(C)c3ccc(F)cc3)n2c1 [compound 980]
MIC ([7]; read-out: MSSA MIC): 4 µg/mL (≈ 11.5 µM)
MRC5 TC50 [8]: 0.7 µg/mL
MIC ([2]; read-out: VRE MIC): 8 µg/mL (≈ 23 µM)
Dmax spread between recovery and non-recovery conditions at 24 h, 32 μg/mL [4]: > 20%
PMM TC50 [9]: 2.8 µg/mL
MIC ([6]; read-out: MRSA MIC): 4 µg/mL (≈ 11.5 µM)

The next lines start with results.

MIC [10]: 32 µg/mL (≈ 99.6 µM)
MIC ([7]; read-out: MSSA MIC (UCL)): > 32 µg/mL
MIC ([6]; UCL, read-out: MRSA MIC (UCL)): > 32 µg/mL
SMILES: COc1ccc(-c2c(-c3ccccn3)nc3n2CCC3)cc1OC [OSA_000820]

HLM CLint (NEU) [1]: 82 uL/min/mg protein
MIC ([7]; read-out: MSSA MIC (UCL)): 1 µg/mL (≈ 3.63 µM)
Aqueous Solubility (NEU) (Aqueous solubility): 32 µM
MIC ([2]; read-out: VRE MIC (UCL)): 16 µg/mL (≈ 58.1 µM)
Rat Hep CLint (NEU) [3]: 49.2 uL/min/10x6 cells
fraction unbound [5]: 0.084
MIC ([6]; UCL, read-out: MRSA MIC (UCL)): 4 µg/mL (≈ 14.5 µM)
SMILES: Cc1ccc(-c2c(-c3ccccn3)nc3n2CCC3)cc1 [OSA_000865]
CC50 at 24 h [4]: 2.1 µg/mL (≈ 7.63 µM)

MIC ([2]; read-out: VRE MIC): > 32 µg/mL
MIC ([6]; read-out: MRSA MIC): 32 µg/mL (≈ 122 µM)
SMILES: c1ccc(-c2c(-c3ccccn3)nc3n2CCC3)cc1 [compound 870]
Dmax spread between recovery and non-recovery conditions at 24 h, 32 μg/mL [4]: > 20%
